Experimental data published in patent publication US20140057887A1, “NOVEL PLATINUM-CARBENE COMPLEXES AND USE THEREOF AS MEDICAMENTS” (priority 2010, published 2014).
Entries after “also recorded” stand apart in the source; their conditions may differ. Read-outs that look alike come from different tables or passages of the source.

Columns and labels:
SK-OV3 [1] = test: Cytotoxicity in vitro, IC50 on SK-OV3; format: cell-based; conditions: ovarian adenocarcinoma
Experimental: (§1) (5% CO2). […] All the treatments are carried out in triplicate.
(§2) SK-OV-3 and OVCAR8: ovarian adenocarcinomas
(§3) The cytotoxicity of a compound against a cancer cell line is evaluated.

PC3 [2] = test: Cytotoxicity in vitro, IC50 on PC3; format: cell-based; conditions: prostatic adenocarcinoma
Experimental: as §1
(§4) PC3: prostatic adenocarcinoma
as §3

MCF7 [3] = test: Percentage of cellular inhibition at 10 μM, MCF7; format: cell-based; conditions: final concentration 10 μM; breast carcinoma
Experimental: as §1

EPC [4] = test: Cytotoxicity in vitro, IC50 on EPC (endothelial progenitor cells); format: cell-based
Experimental: as §1
(§5) EPC: endothelial progenitor cells
(§6) The endothelial progenitor cells (EPC) play an important role in angiogenesis and vasculogenesis; these last-mentioned contribute to tumour growth, are mobilized by cytokines secreted at cancer sites and contribute to postnatal vasculogenesis and to pathological neovascularization.
as §3

SK-OV3 [5] = test: Percentage of cellular inhibition at 10 μM, SK-OV3; format: cell-based; conditions: final concentration 10 μM; ovarian adenocarcinoma
Experimental: as §1, §2

MCF7 [6] = test: Cytotoxicity in vitro, IC50 on MCF7; format: cell-based; conditions: breast carcinoma
Experimental: as §1, §3

PC3 [7] = test: Percentage of cellular inhibition at 10 μM, PC3; format: cell-based; conditions: final concentration 10 μM; prostatic adenocarcinoma
Experimental: as §1, §4

OVCAR8 = test: Percentage of cellular inhibition at 10 μM, OVCAR8; format: cell-based; conditions: final concentration 10 μM; ovarian adenocarcinoma
Experimental: as §1, §2

HL60 = test: Percentage of cellular inhibition at 10 μM, HL60; format: cell-based; conditions: final concentration 10 μM; leukaemia
Experimental: as §1

KB = test: Percentage of cellular inhibition at 10 μM, KB; format: cell-based; conditions: final concentration 10 μM; buccal carcinoma
Experimental: as §1

EPC [8] = test: Percentage of cellular inhibition at 10 μM, EPC; conditions: for anti-angiogenic activity by inhibition of growth of EPC cells (in words): 10 μM; for Inhibition (in %) {EPC}: final concentration 10 μM, endothelial progenitor cells
Experimental: as §1, §6, §5

HCT116 [9] = test: Percentage of cellular inhibition at 10 μM, HCT116; format: cell-based, human; conditions: final concentration 10 μM; colon carcinoma
Experimental: as §1

[10] = system: cell lines KB, SK-OV3, OVCAR-8, HL60, MCF7, HCT116, PC3, MRCS, Vero and EPC; test: Cellular inhibition, overall statements on the panel of cell lines; format: cell-based; conditions: 10 μM, panel of cancer and non-cancerous cell lines
Excerpt: The results obtained are presented below.

[11] = Measurement of water-solubility; format: physicochemical
HCT116 [12] = test: Cytotoxicity in vitro, IC50 on HCT116; format: cell-based, human; conditions: colon carcinoma
Experimental: as §1, §3

Hela = test: MTS cytotoxicity assay, IC50 on Hela cell line
Experimental: (§7) MTS [3-(4,5-dimethylthiazol-2-yl)-5-(3-carboxymethoxyphenyl)-2-(4-sulphophenyl)-2H-tetrazolium] is reduced to formazan (coloured compound, the optical density of which is measured at 492 nm) by the mitochondrial dehydrogenases. Only the live cells will reduce MTS to formazan, which will be released in the medium. The optical density measured at 492 nm is directly proportional to the number of live cells.
(§8) MTS [3-(4,5-dimethylthiazol-2-yl)-5-(3-carboxymethoxyphenyl)-2-(4-sulphophenyl)-2H-tetrazolium], soluble in the culture medium, can be reduced to formazan (coloured product) by the mitochondrial dehydrogenases of the live cells. The measured optical density (492 nm) is therefore directly proportional to the quantity of live cells. The cells are deposited in a 96-well plate at 1.10^4 cells per well in 100 μL of RPMI 5% FCS. The cells are then treated with the various molecules at the desired concentrations and then incubated for 48 h at 37° C. (5% CO2). After treatment, 20 μL of MTS is added to each well. After incubation for two hours at 37° C. the optical density is measured at an absorbance of 492 nm using the plate reader Wallac Victor 2 Multi-label Counter (Technical University of Denmark, Kongens Lyngby, Denmark). All the treatments are carried out in triplicate. The blank, determined by incubating RPMI with MTS, is deducted from the values of the wells containing cells. The percentage of live cells is calculated from the following formula: (OD experiment*100)/OD control.
(§9) The cytotoxicity of the compounds according to the invention is measured in vitro on the Hela and U87 cell lines.
(§10) The cytotoxicity of a compound with respect to a cancer cell line is evaluated from the value of the inhibitory concentration IC50 of said compound with respect to said cell line.
(§11) The MTS assay gives an optical density signal that is proportional to the quantity of live cells (in a linear range). These values, as well as the untreated controls, are used for calculating the percentage of live cells at each concentration. […] The IC50 values are calculated on the basis of 4-parameter fitting using the Sigma Plot software.

U87 = test: MTS cytotoxicity assay, IC50 on U87 cell line
Experimental: as §7, §8, §9
U87: stage IV glioblastoma, expresses αVβ5 and can be used as a xenograft
as §10, §11

Vero = test: Percentage of cellular inhibition at 10 μM, Vero; format: cell-based, monkey
Experimental: as §1
Vero: monkey kidney epithelial cells

MRC5 = test: Percentage of cellular inhibition at 10 μM, MRC5; format: cell-based, human; conditions: final concentration 10 μM; human fetal lung cells (non-cancerous)
Experimental: as §1
MRCS: human fetal lung cells

| Compound | IC50 (SK-OV3 [1]) | IC50 (PC3 [2]) | Inhibition (in %) {MCF7} (MCF7 [3]) | Inhibition (in %) {SK-OV3} (SK-OV3 [5]) | IC50 (MCF7 [6]) | Inhibition (in %) {PC3} (PC3 [7]) | Inhibition (in %) {OVCAR8} (OVCAR8) | Inhibition (in %) {HL60} (HL60) | Inhibition (in %) {KB} (KB) | anti-angiogenic activity by inhibition of growth of EPC cells (in words) (EPC [8]) | Inhibition (in %) {EPC} (EPC [8]) | Inhibition (in %) {HCT116} (HCT116 [9]) | also measured |
| --- | --- | --- | --- | --- | --- | --- | --- | --- | --- | --- | --- | --- | --- |
| Cn1ccn(CCC[Si](C)(C)C)[c]1=[Pt]([I])[I].c1ccncc1 [Example 28, trans-diiodo(N-pyridine)[1-methyl-3-(3-(trimethylsilyl)propyl)-imidazol-2-ylidene]platinum(II)] | 0.2 µM | 0.5 µM | 99.2% | 100.4% | 0.2 µM | 91.5% | 98.0% | 99.6% | 99.8% | anti-angiogenic activity | 100.3% | 99.4% | IC50 (EPC [4]): 0.6 µM |
| Cn1ccn(Cc2ccccc2)[c]1=[Pt]([I])([I])[N]1CCC[C@H]1C(N)=O [Example 25, trans-diiodo(N-(L)-prolinamide)[1-methyl-3-benzyl-imidazol-2-ylidene]platinum(II)] | 0.2 µM | 0.3 µM | 96.2% | 97.2% | 0.2 µM | 94.6% | 93.5% | 91.0% | 98.6% | anti-angiogenic activity | 96.1% | 96.6% | – |
| Cn1ccn(Cc2ccccc2)[c]1=[Pt]([I])([I])[NH]CCO [Example 26, trans-diiodo(N-ethanolamine)[1-methyl-3-benzyl-imidazol-2-ylidene]platinum(II)] | 0.2 µM | 0.6 µM | 96.3% | 97.7% | 0.3 µM | 94.0% | 94.0% | 92.5% | 98.2% | anti-angiogenic activity | 99.1% | 96.6% | – |
| COCCOCCOCCOCCn1ccn(C)[c]1=[Pt]([I])[I].NC1CCCCC1 [Example 13, trans-diiodo(N-cyclohexylamine)[1-methyl-3-(2,5,8,11-tetraoxatridecan-13-yl)-imidazol-2-ylidene]platinum(II)] | – | – | 94.2% | 90.9% | – | 83.8% | 92.4% | 87.3% | 100.4% | anti-angiogenic activity | 96.1% | 94.0% | inhibition of cell growth, overall statement on the cell panel (in words) [10]: improves the activity of inhibition of cell growth |
| trans-diiodo(N-[(methoxy)polyethylene glycol amine])[1-methyl-3-benzyl-imidazol-2-ylidene]platinum(II) [Example 22] | – | – | 91.7% | 90.3% | – | 78.5% | 90.0% | 87.4% | 77.8% | anti-angiogenic activity | 93.7% | 94.3% | Water-solubility ([11]; ambient temperature and pressure): 11100 µg/mL |
| CNC(=O)NCC(Cc1ccccc1)NC(=O)NCC(Cc1ccccc1)NC(=O)NCC(Cc1ccccc1)NC(=O)NCC(N)Cc1ccccc1.Cn1ccn(Cc2ccccc2)[c]1=[Pt]([I])[I] [Example 39, trans-diiodo(N-[1-((2R,7R,12R,17R)-17-amino-2,7,12-tribenzyl-4,9,14-trioxo-18-phenyl-3,5,8,10,13,15-hexaazaoctadecyl)-3-methylurea])[1-methyl-3-benzyl-imidazol-2-ylidene]platinum(II)] | 0.6 µM | 1.4 µM | 95.9% | 95.2% | 0.6 µM | 90.9% | 92.1% | 91.0% | 101.2% | anti-angiogenic activity | 99.3% | 96.1% | IC50 (HCT116 [12]): 0.4 µM; IC50 (EPC [4]): 1.9 µM |
| CN(C)c1cccc2c(S(=O)(=O)N3CC[N]([Pt]([I])([I])=[c]4n(C)ccn4Cc4ccccc4)CC3)cccc12 [Example 30, trans-diiodo(N—[N,N-dimethyl-5-(piperazin-1-ylsulphonyl)naphthalen-1-amine])[1-methyl-3-benzyl-imidazol-2-ylidene]platinum(II)] | 0.1 µM | 0.6 µM | 99.3% | 97.7% | 0.1 µM | 99.3% | 96.3% | 95.3% | 100.8% | anti-angiogenic activity | 99.9% | 99.8% | – |
| CN1C=CN(Cc2ccccc2)[CH]1[Pt]([I])([I])[NH]CCN (stereo not drawn) [Example 33, trans-diiodo(N-ethylenediamine)[1-methyl-3-benzyl-imidazol-2-ylidene]platinum(II)] | – | – | – | – | – | – | – | – | – | – | – | – | solubility ([11]; water, thermodynamic from solid, ambient temperature and pressure): 3300 µg/mL |
| CCC(C)[C@H]([NH][Pt]([I])([I])=[c]1n(C)ccn1Cc1ccccc1)C(=O)N[C@@H](CCCCNC(=O)OCc1ccccc1Cl)C(=O)NCC(=O)OC (stereo partly drawn) [Example 21, trans-diiodo(N-[methyl 2-((S)-2-((2S,3R)-2-amino-3-methylpentanamido)-6-((((2-chlorobenzyl)oxy)carbonyl)amino)hexanamido)acetate])[1-methyl-3-benzyl-imidazol-2-ylidene]platinum(II)] | 3.7 µM | 4.6 µM | 96.2% | 95.9% | 4.1 µM | 87.0% | 93.3% | 90.5% | 100.1% | anti-angiogenic activity | 101.3% | 97.2% | IC50 (HCT116 [12]): 1.9 µM |
| CCCCCCCn1ccn(C)[c]1=[Pt]([I])[I].c1ccncc1 [Example 9, trans-diiodo(N-pyridine)[1-methyl-3-heptyl-imidazol-2-ylidene]platinum(II)] | 0.2 µM | 0.7 µM | 98.6% | 98.5% | 0.2 µM | 91.3% | 96.8% | 97.2% | 100.8% | anti-angiogenic activity | 100.0% | 98.2% | IC50 (EPC [4]): 1 µM |
| trans-diiodo(N-poly(ethylenamine))[1-methyl-3-benzyl-imidazol-2-ylidene]platinum(II) [Example 34] | 1.2 µM | 2.8 µM | 98.2% | 99.1% | 1.7 µM | 64.2% | 79.1% | 97.0% | 64.0% | anti-angiogenic activity | 95.8% | 90.1% | inhibition of cell growth, overall statement on the cell panel (in words) [10]: inhibitor of the growth of cancer cells and an anti-angiogenic agent; also recorded: cytotoxic activity on all of the cancer cells tested; IC50 (HCT116 [12]): 1 µM; cytotoxic activity compared with cisplatin, HeLa cell line (in words) (Hela; comparison with cisplatin): almost identical to that of cisplatin; IC50 (Hela; read-out: IC50 {Hela} (in μM), MTS assay, 48 h incubation): 28.4 µM; cytotoxic activity compared with cisplatin, U87 cell line (in words) (U87; comparison with cisplatin): almost identical to that of cisplatin; IC50 (U87; read-out: IC50 {U87} (in μM), MTS assay, 48 h incubation): 8.3 µM; Water-solubility [11]: 6700 µg/mL; cytotoxicity on non-cancerous cells Vero (in words) (Vero; 10 μM): low cytotoxicity; Inhibition (in %) {Vero} (Vero; final concentration 10 μM, monkey kidney epithelial cells (non-cancerous)): 19.5%; Inhibition (in %) {MRC5} (MRC5): 26.4% |
